Where a name gives a salt, the structure may show the parent alone.

The term EC50 denotes the concentration giving half of the maximal effect. Higher therefore signals a less potent agent.

The target in this test is T1, hNPRA (Homo sapiens, UniProt P16066).
T1 construct: expressed in transfected cells
T1 sequence (P16066 33-1061): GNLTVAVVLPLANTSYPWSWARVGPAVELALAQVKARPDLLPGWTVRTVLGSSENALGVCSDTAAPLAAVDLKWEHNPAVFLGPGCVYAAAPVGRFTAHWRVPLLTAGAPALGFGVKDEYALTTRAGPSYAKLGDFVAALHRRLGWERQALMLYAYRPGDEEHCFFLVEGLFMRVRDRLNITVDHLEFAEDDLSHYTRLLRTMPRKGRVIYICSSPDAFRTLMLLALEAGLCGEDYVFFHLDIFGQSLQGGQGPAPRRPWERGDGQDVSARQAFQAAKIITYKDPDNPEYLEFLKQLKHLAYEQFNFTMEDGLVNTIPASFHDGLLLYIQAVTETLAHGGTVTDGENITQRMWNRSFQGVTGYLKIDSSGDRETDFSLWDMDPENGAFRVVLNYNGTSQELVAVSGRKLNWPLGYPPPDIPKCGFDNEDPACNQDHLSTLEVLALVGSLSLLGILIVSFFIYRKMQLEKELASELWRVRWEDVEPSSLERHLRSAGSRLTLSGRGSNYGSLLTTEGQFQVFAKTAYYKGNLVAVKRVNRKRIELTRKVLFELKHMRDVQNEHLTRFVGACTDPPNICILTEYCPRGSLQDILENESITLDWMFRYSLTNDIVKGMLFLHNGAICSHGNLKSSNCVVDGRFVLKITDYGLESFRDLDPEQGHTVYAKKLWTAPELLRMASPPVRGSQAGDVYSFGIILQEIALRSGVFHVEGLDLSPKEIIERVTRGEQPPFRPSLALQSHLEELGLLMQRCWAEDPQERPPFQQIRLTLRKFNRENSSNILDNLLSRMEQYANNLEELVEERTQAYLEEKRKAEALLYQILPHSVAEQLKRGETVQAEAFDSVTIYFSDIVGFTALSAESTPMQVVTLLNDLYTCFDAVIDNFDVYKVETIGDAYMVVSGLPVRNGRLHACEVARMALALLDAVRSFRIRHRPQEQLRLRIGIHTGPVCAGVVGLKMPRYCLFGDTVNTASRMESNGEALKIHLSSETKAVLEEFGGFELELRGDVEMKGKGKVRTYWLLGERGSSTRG
Put plainly: NPRA Functional Cell Assay (cGMP HTRF, NPRA HEK JumpIn stable cells). Format: cell-based. The settings on record: cGMP production, 1 hour at 37° C., 10-point dose response. The gist of the method: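 cGMP HTRF read-out after 1 hour compound treatment at 37° C. of human NPRA-expressing HEK JumpIn cells, 1500 cells/well, in buffer with phosphodiesterase inhibitors IBMX and RO20 (100 uM each). Signal converted to [cGMP] by calibration curve; EC50s fitted by 4-parameter logistic; 50 nM h-ANP as positive response.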
Compound `CC(C)(C)[C@H]1CCc2nc3sc(C(=O)N[C@H](CCN4CCCCC4)c4ccc(-c5ccoc5)cc4)cc3cc2C1` (racemic) [Example 3, rac-(6S)-6-tert-butyl-N-[rac-(1R)-1-[4-(3-furyl)phenyl]-3-(1-piperidyl)propyl]-5,6,7,8-tetrahydrothieno[2,3-b]quinoline-2-carboxamide] came in with an EC50 of 0.675 µM.

In turn, `COC(=O)C1CCN(CC[C@@H](NC(=O)c2nc3cc4c(nc3s2)CC[C@@](F)(C(C)C)C4)c2ccc(-c3ccnnc3)nc2)CC1` [Example 269, methyl 1-((R)-3-((S)-7-fluoro-7-isopropyl-5,6,7,8-tetrahydrothiazolo[5,4-b]quinoline-2-carboxamido)-3-(6-(pyridazin-4-yl)pyridin-3-yl)propyl)piperidine-4-carboxylate] came in with an EC50 of 1.85 µM.

In the case of `CC(C)(C)[C@H]1CCc2nc3sc(C(=O)N[C@H](CCN[C@H]4C[C@H](O)C4)c4ccccc4)cc3cc2C1` [Example 260, (6S)-6-tert-butyl-N-{(1R)-3-[(trans-3-hydroxycyclobutyl)amino]-1-phenylpropyl}-5,6,7,8-tetrahydrothieno[2,3-b]quinoline-2-carboxamide], it took 2 µM to reach a half-maximal effect (EC50).

As for `CC(C)(C)[C@H]1CCc2nc3sc(C(=O)N[C@H](CCN4CCC(n5ccnc5)CC4)c4cccc(NS(C)(=O)=O)c4)cc3cc2C1` (racemic) [Example 17, ammonium; methylsulfonyl-[3-[rac-(1R)-3-(4-imidazol-1-y1-1-piperidy1)-1-[[rac-(6S)-6-tert-butyl-5,6,7,8-tetrahydrothieno[2,3-b]quinoline-2-carbonyl]amino]propyl]phenyl]azanide], the EC50 came to 1.26 µM.

`CC(C)(C)[C@H]1CCc2nc3sc(C(=O)N[C@H](CCN4CCC(O)CC4)c4cccc(C(=O)N[C@@H]5CNC[C@H]5O)c4)nc3cc2C1` (racemic) [Example 135, rac-(7S)-7-tert-butyl-N-[rac-(1R)-3-(4-hydroxy-1-piperidyl)-1-[3-[[rac-(3R,4R)-4-hydroxypyrrolidin-3-yl]carbamoyl]phenyl]propyl]-5,6,7,8-tetrahydrothiazolo[5,4-b]quinoline-2-carboxamide] came in with an EC50 of 0.132 µM.

On to `CC(C)(C)[C@H]1CCc2nc3sc(C(=O)N[C@H](CCN4CC[C@@H](C(=O)O)[C@@H](F)C4)c4ccc(-c5cnc(O)c(F)c5)cc4)nc3cc2C1` (racemic) [Example 201, rac-(3R,4S)-3-fluoro-1-[rac-(3R)-3-[4-(5-fluoro-6-hydroxy-3-pyridyl)phenyl]-3-[[rac-(7S)-7-tert-butyl-5,6,7,8-tetrahydrothiazolo[5,4-b]quinoline-2-carbonyl]amino]propyl]piperidin-1-ium-4-carboxylic acid; formate], for which the EC50 stood at 0.447 µM.

With `CC(C)(C)[C@H]1CCc2nc3sc(C(=O)N[C@H](CCN4CCC(O)CC4)c4cccc(C(=O)NC5CCNCC5)c4)nc3cc2C1` (racemic) [Example 133, rac-(7S)-7-tert-butyl-N-[rac-(1R)-3-(4-hydroxy-1-piperidyl)-1-[3-(4-piperidylcarbamoyl)phenyl]propyl]-5,6,7,8-tetrahydrothiazolo[5,4-b]quinoline-2-carboxamide], the EC50 is 0.117 µM.

On to `CC(C)(C)[C@H]1CCc2nc3sc(C(=O)N[C@H](CCN[C@H]4CCCC(F)(F)[C@@H]4O)c4cccc(NS(C)(=O)=O)c4)cc3cc2C1` (racemic) [Example 24, ammonium; methylsulfony 1-[3-[rac-(1R)-1-[[rac-(6S)-6-tert-buty1-5,6,7,8-tetrahydrothieno[2,3-b]quinoline-2-carbonyl]amino]-3-[[rac-(1S,2R)-3,3-difluoro-2-hydroxy-cyclohexyl]amino]propyl]phenyl]azanide], for which a half-maximal effect (EC50) was put at 1.97 µM.

For `CC(C)(C)[C@H]1CCc2nc3sc(C(=O)N[C@H](CCN4CCC(n5ncnn5)CC4)c4ccc(-c5ccc(=O)[nH]c5)cc4)cc3cc2C1` (racemic) [Example 35, rac-(6S)-6-tert-butyl-N-[rac-(1R)-1-[4-(6-oxo-1H-pyridin-3-yl)phenyl]-3-[4-(tetrazol-2-yl)piperidin-1-ium-1-yl]propyl]-5,6,7,8-tetrahydrothieno[2,3-b]quinoline-2-carboxamide;formate], the EC50 amounted to 0.535 µM.

As to `O=C(N[C@H](CCN1CCC(O)CC1)c1ccc(-c2cn[nH]c2)cc1)c1nc2cc3c(nc2s1)CC[C@H](C1(C(F)(F)F)CC1)C3` [Example 268, (S)-N-((R)-1-(4-(1H-pyrazol-4-yl)phenyl)-3-(4-hydroxypiperidin-1-yl)propyl)-7-(1-(trifluoromethyl)cyclopropyl)-5,6,7,8-tetrahydrothiazolo[5,4-b]quinoline-2-carboxamide], the midpoint of the response, the EC50, lay at 2.03 µM.

Consider `CC(C)(C)[C@H]1CCc2nc3sc(C(=O)N[C@H](CCN4CCC[C@@H]4CO)c4ccccc4)cc3cc2C1` [Example 262, (6S)-6-tert-butyl-N-{(1R)-3-[(2R)-2-(hydroxymethyl)pyrrolidin-1-yl]-1-phenylpropyl}-5,6,7,8-tetrahydrothieno[2,3-b]quinoline-2-carboxamide], for which the response was half-maximal at 6.32 µM (EC50).

`CN(C)S(=O)(=O)Nc1ccc([C@@H](CCN2CC[C@H]2CO)NC(=O)c2nc3cc4c(nc3s2)CC[C@H](C(C)(C)C)C4)cn1` (racemic) [Example 213, rac-(7S)-7-tert-butyl-N-[rac-(1R)-1-[6-(dimethylsulfamoylamino)-3-pyridyl]-3-[rac-(2S)-2-(hydroxymethyl)azetidin-1-ium-1-yl]propyl]-5,6,7,8-tetrahydrothiazolo[5,4-b]quinoline-2-carboxamide; 2,2,2-trifluoroacetate] returned an EC50 of 1.01 µM.

Source of the values: patent US12440496B2, “Natriuretic peptide receptor a agonists useful for the treatment of cardiometabolic diseases, kidney disease and diabetes” (Merck Sharp & Dohme LLC, priority 2019, dated 2025).
